Measured values as given in article PMC3978507, “Fusion of a Short HA2-Derived Peptide Sequence to Cell-Penetrating Peptides Improves Cytosolic Uptake, but Enhances Cytotoxic Activity” (Pharmaceuticals, 2009).
Positions of bridges follow the written chain, without caps; N, C: chain ends. Residues, ends and D or L forms follow the SMILES beside them. Chains are numbered I, II in the order given.

Columns and labels:
HeLa cells [1] = assay: Resazurin-based cell viability assay; design: species or system human; conditions: 24 h incubation, up to 100 µM peptide
Method: (§1) We used the following cell lines: HEK 293 (human embryonal kidney), HeLa (human cervix carcinoma), MCF-7 (human breast adenocarcinoma), HT-29 (human colon adenocarcinoma), K-562 (human chronic myeloid leukemia) and Jurkat (human T cell leukemia). All cells were cultured in 75 cm^2 culture flasks at 37 °C and 5% CO2 in a humidified atmosphere and split when confluent. For HEK 293 cells Dulbecco’s Modified Eagle Medium/ Ham’s F12 (without L-glutamine) containing 15% heat-inactivated foetal calf serum was used. HeLa and Jurkat cells were grown in supplemented RPMI 1640 (with L-glutamine) with 10% heat-inactivated foetal calf serum, MCF-7 cells in Dulbecco’s Modified Eagle Medium/ Ham’s F12 (without L-glutamine) containing 10% heat-inactivated foetal calf serum and 1% glutamine, and HT-29 and K-562 cells in Dulbecco’s Modified Eagle Medium supplemented with 10% heat-inactivated foetal calf serum. Detachment and dissociation of confluent cells was done by Trp/EDTA (0.05%/0.02% in PBS). For microscopic studies cells were seeded in glass-bottomed 8-well plates, whereas cells for cell viability and flow cytometric studies were cultured in 96-well plates.

HeLa cells [2] = assay: Flow cytometric studies of peptide uptake; assay type: cell-based, human; conditions: for uptake of chimeric peptide versus parent CPP: CF-labelled, 10 min, several peptide concentrations, flow cytometry
Method: Finally, cells were diluted with cold HBSS and inspected.

K562 cells = assay: Flow cytometric analysis of cell viability (FDA/PI staining); assay type: cell-based, human; conditions: flow cytometry FDA/PI, 24 h, 1-50 µM peptide
Method: as §1
(§2) Untreated cells were used as negative control.

Jurkat cells = assay: as above; assay type: cell-based, human; conditions: flow cytometry FDA/PI, 24 h, 1-50 µM peptide
Method: as §1, §2

MCF-7 cells = assay: MTT cell viability assay; assay type: cell-based, human; conditions: 24 h, 1-100 µM peptide
Method: as §1

HT-29 cells = assay: MTT cell viability assay; assay type: cell-based, human; conditions: 24 h, 1-100 µM peptide
Method: as §1

[3] = tested on: several cell lines (MCF-7, HT-29, HEK293, K562, Jurkat); conditions: for cytotoxicity, several cell lines: several cell lines (MCF-7, HT-29, HEK293, K562, Jurkat), concentrations of up to 100 µM
Method: The effect of the peptides on the viability of HT-29 and MCF-7 cells was checked by using the MTT-assay. Therefore, cells were cultivated to subconfluency under standard conditions in 96-well plates. The treatment was performed with 1-100 µM of the peptides for 24 h. Then, 10-fold stock solution of MTT reagent (5 mg/mL in medium) was added to each sample, and the cells were incubated for further 2 h. Formazan crystals were solubilised with 200 µL DMSO per well. After incubation for 15 min at 400 rpm and RT, absorbance was measured with a Tecan Saphire plate reader (560 nm, reference filter 630 nm).
The viability after peptide treatment (1-50 µM peptide solutions) for 24 h of the suspension cell lines Jurkat and K562 was tested by using flow cytometry. For this purpose, 2.5 × 10^5 cells per sample were stained with fluorescein diacetate (FDA) (0.04 µg/100 µL cell suspension) and propidium iodide (PI) (25 µg/100 µL cell suspension) in FACS buffer (1% BSA in PBS). Samples were incubated for 15 min at RT in the dark, washed and resuspended in FACS buffer.
Viability of the stained cells was analysed using a FACS®Calibur and CellQuest Pro analysis software (both Becton Dickinson, Franklin Lakes, USA) and is represented as relative cell number of viable cells. Untreated cells were used as negative control. Excitation and emission settings were 488 nm and 525–550 nm for FDA and 488 nm and 564–606 nm for PI staining.

K562 erythrocytes = conditions: cited from earlier work
Description: (§3) Therefore, we further elucidated the cytotoxicity profiles of the chimeric peptides for several cell lines (including MCF-7, HeLa and HT-29 cells, as well as suspension cell lines K562 and Jurkat).

[4] = tested on: MDA-MB-231 breast cancer cells; conditions: cited from earlier work
Description: as §3

Row | Compound | IC50 (HeLa cells [1]) [µM] | uptake of chimeric peptide versus parent CPP (HeLa cells [2]) | IC50 (K562 cells) [µM] | IC50 (Jurkat cells) [µM] | IC50 (MCF-7 cells) [µM] | IC50 (HT-29 cells) [µM] | cellular translocation of the peptide alone (HeLa cells [2]; CF-labelled analogue, 60 min, several concentrations, fluorescence microscopy and flow cytometry) | cytotoxicity, several cell lines [3] | cytotoxic effects, all tested cell lines ([3]; all tested cell lines, data not shown) | haemolytic effect (K562 erythrocytes) | membrane toxicity [4]
1 | CC(C)C[C@H](NC(=O)CN)C(=O)N[C@@H](CC(C)C)C(=O)N[C@@H](CCC(=O)O)C(=O)N[C@@H](C)C(=O)N[C@@H](CC(C)C)C(=O)N[C@@H](C)C(=O)N[C@@H](CCC(=O)O)C(=O)N[C@@H](CC(C)C)C(=O)N[C@@H](CC(C)C)C(=O)N[C@@H](CCC(=O)O)C(=O)NCC(=O)N[C@@H](CCCNC(=N)N)C(=O)N[C@@H](CCCCN)C(=O)N[C@@H](CCCCN)C(=O)N[C@@H](CCCNC(=N)N)C(=O)N[C@@H](CCCNC(=N)N)C(=O)N[C@@H](CCC(N)=O)C(=O)N[C@@H](CCCNC(=N)N)C(=O)N[C@@H](CCCNC(=N)N)C(=O)N[C@@H](CCCNC(=N)N)C(=O)N1CCC[C@H]1C(=O)N1CCC[C@H]1C(=O)N[C@@H](CCC(N)=O)C(N)=O [N-E5L-Tat(48-60)] (H-GLLEALAELLEGRKKRRQRRRPPQ-NH2) | 29.4 ± 3.9 | higher uptake values | > 30 | 7.9 ± 0.8 | 39.3 ± 9.4 | 90.9 ± 0.2 |  |  |  |  | 
2 | CC[C@H](C)[C@H](NC(=O)[C@H](C)NC(=O)[C@@H](NC(=O)[C@H](CCC(N)=O)NC(=O)[C@@H]1CCCN1C(=O)[C@H](Cc1ccccc1)NC(=O)[C@@H](NC(=O)[C@H](Cc1c[nH]cn1)NC(=O)[C@H](Cc1ccccc1)NC(=O)[C@H](CCCCNC(=O)[C@H](C)NC(=O)[C@H](Cc1ccccc1)NC(=O)[C@H](CCCCN)NC(=O)[C@H](CCCNC(=N)N)NC(=O)[C@H](CCCCN)NC(=O)[C@H](CCCCN)NC(=O)[C@H](CCCCN)NC(=O)[C@@H]1CCCN1C(=O)[C@H](C)NC(=O)[C@H](CCCCN)NC(=O)[C@H](CCCNC(=N)N)NC(=O)[C@H](CCCCN)NC(=O)[C@@H](N)CCCCN)NC(=O)[C@H](CCC(=O)O)NC(=O)[C@H](CC(C)C)NC(=O)[C@H](CC(C)C)NC(=O)[C@H](CCC(=O)O)NC(=O)[C@H](C)NC(=O)[C@H](CC(C)C)NC(=O)[C@H](C)NC(=O)[C@H](CCC(=O)O)NC(=O)[C@H](CC(C)C)NC(=O)[C@H](CC(C)C)NC(=O)CN)[C@@H](C)O)[C@@H](C)O)C(=O)NCC(=O)N[C@H](C(=O)NCC(=O)N[C@@H](C)C(=O)N1CCC[C@H]1C(N)=O)C(C)C [N-E5L-hCT(18-32)-k7] (I: H-GLLEALAELLEKFHTFPQTAIGVGAP-NH2 / II: H-KKRKAPKKKRKFA; amide I:12-II:C; N-terminus assumed) | 33.1 ± 3.3 | higher uptake values | > 30 | 11.4 ± 4.2 | 37.8 ± 6.5 | 59.1 ± 0.1 |  |  |  |  | 
3 | CC[C@H](C)[C@H](NC(=O)[C@H](CCCCN)NC(=O)[C@H](CC(N)=O)NC(=O)[C@H](CCCNC(=N)N)NC(=O)[C@H](Cc1ccccc1)NC(=O)[C@H](CCCCN)NC(=O)[C@H](CCCNC(=N)N)NC(=O)[C@H](CC(C)C)NC(=O)[C@H](CCCNC(=N)N)NC(=O)[C@H](CCCCN)NC(=O)[C@H](CCCNC(=N)N)NC(=O)[C@H](CC(C)C)NC(=O)CNC(=O)[C@H](CCC(=O)O)NC(=O)[C@H](CC(C)C)NC(=O)[C@H](CC(C)C)NC(=O)[C@H](CCC(=O)O)NC(=O)[C@H](C)NC(=O)[C@H](CC(C)C)NC(=O)[C@H](C)NC(=O)[C@H](CCC(=O)O)NC(=O)[C@H](CC(C)C)NC(=O)[C@H](CC(C)C)NC(=O)CN)C(=O)N[C@@H](CCCCN)C(=O)N[C@@H](CCC(=O)O)C(=O)N[C@@H](CCCCN)C(N)=O [N-E5L-sC18] (H-GLLEALAELLEGLRKRLRKFRNKIKEK-NH2) | 31.8 ± 1.9 | higher uptake values | > 30 | 7.3 ± 1.7 | 30.8 ± 4.1 | 72.1 ± 0.1 |  |  |  |  | 
4 | GLLEALAELLE [N-E5L] |  |  |  |  |  |  | unable to translocate in cells | no cytotoxicity was observed |  |  | 
5 | GLRKRLRKFRNKIKEK [sC18] |  |  |  |  |  |  |  | no cytotoxicity was observed |  |  | 
6 | GRKKRRQRRRPPQ [Tat(48-60)] |  |  |  |  |  |  |  |  | no cytotoxic effects | no haemolytic effect | no membrane toxicity
